From patent US20210038587A1, “METHODS AND COMPOSITIONS FOR TREATING NON-ERK MAPK PATHWAY INHIBITOR-RESISTANT CANCERS” (BIOMED VALLEY DISCOVERIES, INC., priority 2013, published 2021)

Key:
MIAPaCa-2 = test: Reverse Phase Protein Analysis (RPPA); assay type: cell-based; conditions: MIAPaca2; % change from DMSO (matched cell line)
[1] = test system: A375, MIAPaCa-2, HCT116, Colo205, HT-29, and AN3Ca cells; test: Reverse Phase Protein Analysis (RPPA), all six cell lines; assay type: cell-based; conditions: 10 μM, 6 hours
Method: (§1) Control wells were treated with DMSO at 0.1% (v/v) for 6 hours prior to cell lysate generation. Samples were then analyzed using reverse-phase protein microarray technology (Theranostics Health).
(§2) Cell lines with common alterations in BRAF and RAS were assayed: BRAF^V600E mutant lines A375, Colo205, and HT29; KRAS^G12C-mutant cell line MIAPACa-2; KRAS^G13D-mutant cell line HCT116; and AN3Ca with atypical HRAS^F82L mutation. Changes in protein levels are shown as a percentage change from dimethyl sulfoxide (DMSO)-treated parental control (FIG. 32A and Table 23).

AN3Ca = test: Reverse Phase Protein Analysis (RPPA); assay type: cell-based; conditions: % change from DMSO (matched cell line)
Method: as §1, §2

HT29 = test: Reverse Phase Protein Analysis (RPPA); assay type: cell-based; conditions: % change from DMSO (matched cell line)
Method: as §1, §2

HCT116 = test: Reverse Phase Protein Analysis (RPPA); assay type: cell-based, human; conditions: % change from DMSO (matched cell line)
Method: as §1, §2

Cn1nccc1Nc1nccc(-c2ccn([C@H](CO)c3ccc(Cl)c(F)c3)c(=O)c2)n1 [GDC-0994]
Avg (4ebp1 T70) (MIAPaCa-2): −34.01% | Avg (Akt S473) (MIAPaCa-2): 2.24% | Avg (Akt) (MIAPaCa-2): 4.33% | Avg (Bad S136) (MIAPaCa-2): 2.25% | Avg (Bad S155) (MIAPaCa-2): 8.18% | Avg (Bak) (MIAPaCa-2): −8.11% | Avg (Bax) (MIAPaCa-2): 3.48% | Avg (Bcl 2) (MIAPaCa-2): −7.8% | Avg (Bcl2 S70) (MIAPaCa-2): −6.78% | Avg (Bcl 2 T56) (MIAPaCa-2): −2.12% | Avg (Bim) (MIAPaCa-2): 5.07% | Avg (CREB S133) (MIAPaCa-2): −21.37% | Avg (Caspase 3 CL D175) (MIAPaCa-2): 10.47% | Avg (Caspase 7 Cl D198) (MIAPaCa-2): −4.92% | Avg (Chk1) (MIAPaCa-2): 6.56% | Avg (Chk1 S345) (MIAPaCa-2): 32.96% | Avg (Cyclin D1) (MIAPaCa-2): −31.92% | Avg (ERK 1 2) (MIAPaCa-2): −6.88% | Avg (ERK 1 2 T202 Y204) (MIAPaCa-2): 199.59% | Avg (MAK1 S360) (MIAPaCa-2): −5.25% | Avg (Mcl1) (MIAPaCa-2): −1.79% | Avg (Raptor S792) (MIAPaCa-2): 2.18% | Avg (Raptor) (MIAPaCa-2): 22.43% | Avg (Rictor) (MIAPaCa-2): −11.25% | Avg (Stat1) (MIAPaCa-2): 7.4% | Avg (Stat3) (MIAPaCa-2): −9.44% | Avg (bad S112) (MIAPaCa-2): −10.08% | Avg (c Fos) (MIAPaCa-2): −16.12% | Avg (c Myc) (MIAPaCa-2): −7.84% | Avg (mTOR S2448) (MIAPaCa-2): 11.84% | Avg (mTOR S2481) (MIAPaCa-2): 3.65% | Avg (mTOR) (MIAPaCa-2): −9.8% | Avg (p70 S6 Kinase) (MIAPaCa-2): −3.25% | Avg (p90 RSK S380) (MIAPaCa-2): −39.09% | Avg(S6 Ribo Prot S235 236) (MIAPaCa-2): −67.9% | Avg(S6 Ribo Prot S240 244) (MIAPaCa-2): −75.59% | Avg(Tuberin TSC2 Y1571) (MIAPaCa-2): 5.71% | Avg(p70 S6 Kinase S371 S394) (MIAPaCa-2): −14.4% | Avg(p70 S6 Kinase T389 T412) (MIAPaCa-2): −40.99% | pERK1/2 (ERK1/2-T202, -Y204) [1]: markedly increased pERK1/2 | survival marker pBAD [1]: only modest inhibition of pBAD | Avg (4ebp1 T70) (AN3Ca): 11.28% | Avg (Akt S473) (AN3Ca): 82.37% | Avg (Akt) (AN3Ca): −26.04% | Avg (Bad S136) (AN3Ca): 0.71% | Avg (Bad S155) (AN3Ca): 17.31% | Avg (Bak) (AN3Ca): 7.33% | Avg (Bax) (AN3Ca): 23.83% | Avg (Bcl 2) (AN3Ca): 7.8% | Avg (Bcl2 S70) (AN3Ca): −0.65% | Avg (Bcl 2 T56) (AN3Ca): 1.23% | Avg (Bim) (AN3Ca): −11.63% | Avg (CREB S133) (AN3Ca): 5.03% | Avg (Caspase 3 CL D175) (AN3Ca): 1.55% | Avg (Caspase 7 Cl D198) (AN3Ca): −15.56% | Avg (Chk1) (AN3Ca): 9.43% | Avg (Chk1 S345) (AN3Ca): 15.46% | Avg (Cyclin D1) (AN3Ca): 0.34% | Avg (ERK 1 2) (AN3Ca): −2.87% | Avg (ERK 1 2 T202 Y204) (AN3Ca): 645.51% | Avg (MAK1 S360) (AN3Ca): 6.84% | Avg (Mcl1) (AN3Ca): −4.16% | Avg (Raptor S792) (AN3Ca): 4.85% | Avg (Raptor) (AN3Ca): −8.05% | Avg (Rictor) (AN3Ca): −9.21% | Avg (Stat1) (AN3Ca): 9.15% | Avg (Stat3) (AN3Ca): −13.05% | Avg (bad S112) (AN3Ca): 2.53% | Avg (c Fos) (AN3Ca): −0.63% | Avg (c Myc) (AN3Ca): 3.99% | Avg (mTOR S2448) (AN3Ca): −2.96% | Avg (mTOR S2481) (AN3Ca): 25.42% | Avg (mTOR) (AN3Ca): −2.85% | Avg (p70 S6 Kinase) (AN3Ca): −3.67% | Avg (p90 RSK S380) (AN3Ca): −29.44% | Avg(S6 Ribo Prot S235 236) (AN3Ca): −30.74% | Avg(S6 Ribo Prot S240 244) (AN3Ca): −23.47% | Avg(Tuberin TSC2 Y1571) (AN3Ca): 25.18% | Avg(p70 S6 Kinase S371 S394) (AN3Ca): 29.09% | Avg(p70 S6 Kinase T389 T412) (AN3Ca): 26.01% | Avg (4ebp1 T70) (HT29): 1.95% | Avg (Akt S473) (HT29): −10.5% | Avg (Akt) (HT29): −10.01% | Avg (Bad S136) (HT29): 2% | Avg (Bad S155) (HT29): −6.7% | Avg (Bak) (HT29): 3.56% | Avg (Bax) (HT29): 1.1% | Avg (Bcl 2) (HT29): 18.16% | Avg (Bcl2 S70) (HT29): 10.59% | Avg (Bcl 2 T56) (HT29): 1.61% | Avg (Bim) (HT29): 7.74% | Avg (CREB S133) (HT29): 9.54% | Avg (Caspase 3 CL D175) (HT29): −3.44% | Avg (Caspase 7 Cl D198) (HT29): −0.88% | Avg (Chk1) (HT29): 5.68% | Avg (Chk1 S345) (HT29): 6.88% | Avg (Cyclin D1) (HT29): −35.69% | Avg (ERK 1 2) (HT29): 4.66% | Avg (ERK 1 2 T202 Y204) (HT29): 268.99% | Avg (MAK1 S360) (HT29): −0.04% | Avg (Mcl1) (HT29): 3.71% | Avg (Raptor S792) (HT29): −1.75% | Avg (Raptor) (HT29): −6.85% | Avg (Rictor) (HT29): −10.62% | Avg (Stat1) (HT29): 2.58% | Avg (Stat3) (HT29): −3.69% | Avg (bad S112) (HT29): −12.98% | Avg (c Fos) (HT29): −12.92% | Avg (c Myc) (HT29): 7.56% | Avg (mTOR S2448) (HT29): −11.44% | Avg (mTOR S2481) (HT29): 3.23% | Avg (mTOR) (HT29): 10.45% | Avg (p70 S6 Kinase) (HT29): −2.83% | Avg (p90 RSK S380) (HT29): −30.59% | Avg(S6 Ribo Prot S235 236) (HT29): −41.45% | Avg(S6 Ribo Prot S240 244) (HT29): −21.74% | Avg(Tuberin TSC2 Y1571) (HT29): 11.86% | Avg(p70 S6 Kinase S371 S394) (HT29): −25.73% | Avg(p70 S6 Kinase T389 T412) (HT29): −20.86% | Avg (4ebp1 T70) (HCT116): 20.5% | Avg (Akt S473) (HCT116): 4.69% | Avg (Akt) (HCT116): −6.13% | Avg (Bad S136) (HCT116): −1.24% | Avg (Bad S155) (HCT116): −19.71% | Avg (Bak) (HCT116): −1.74% | Avg (Bax) (HCT116): −20.11% | Avg (Bcl 2) (HCT116): −4.56% | Avg (Bcl2 S70) (HCT116): −12.53% | Avg (Bcl 2 T56) (HCT116): −11.96% | Avg (Bim) (HCT116): 6.2% | Avg (CREB S133) (HCT116): −8.56% | Avg (Caspase 3 CL D175) (HCT116): −8.36% | Avg (Caspase 7 Cl D198) (HCT116): −13.99% | Avg (Chk1) (HCT116): 2.28% | Avg (Chk1 S345) (HCT116): −18.77% | Avg (Cyclin D1) (HCT116): −63.59% | Avg (ERK 1 2) (HCT116): −1.9% | Avg (ERK 1 2 T202 Y204) (HCT116): 526.64% | Avg (MAK1 S360) (HCT116): −12.93% | Avg (Mcl1) (HCT116): −4.77% | Avg (Raptor S792) (HCT116): −15.77% | Avg (Raptor) (HCT116): −6.2% | Avg (Rictor) (HCT116): −10.98% | Avg (Stat1) (HCT116): −6.32% | Avg (Stat3) (HCT116): −0.25% | Avg (bad S112) (HCT116): −12.36% | Avg (c Fos) (HCT116): −10.36% | Avg (c Myc) (HCT116): −12.03% | Avg (mTOR S2448) (HCT116): −19.33% | Avg (mTOR S2481) (HCT116): −18.34% | Avg (mTOR) (HCT116): −4.85% | Avg (p70 S6 Kinase) (HCT116): −9.9% | Avg (p90 RSK S380) (HCT116): −22.25% | Avg(S6 Ribo Prot S235 236) (HCT116): −94.82% | Avg(S6 Ribo Prot S240 244) (HCT116): −95.1% | Avg(Tuberin TSC2 Y1571) (HCT116): −9.4% | Avg(p70 S6 Kinase S371 S394) (HCT116): −11.47% | Avg(p70 S6 Kinase T389 T412) (HCT116): −24.73%
